Experimental data reported in patent publication US20100184786A1, “Polar Quinazolines” (Wyeth LLC, priority 2008, published 2010).

What was measured:
[1] = target: T1, human LXRβ (Homo sapiens, UniProt P55055); test: Ligand-binding test procedure for human LXRβ (3H T0901317 tracer, flash plates); settings: competition with 3H T0901317; read-out: hLXRb binding IC50
T1 construct: biotin (biotinylated); made in house; host or cells: E. coli
T1 sequence (P55055 1-460): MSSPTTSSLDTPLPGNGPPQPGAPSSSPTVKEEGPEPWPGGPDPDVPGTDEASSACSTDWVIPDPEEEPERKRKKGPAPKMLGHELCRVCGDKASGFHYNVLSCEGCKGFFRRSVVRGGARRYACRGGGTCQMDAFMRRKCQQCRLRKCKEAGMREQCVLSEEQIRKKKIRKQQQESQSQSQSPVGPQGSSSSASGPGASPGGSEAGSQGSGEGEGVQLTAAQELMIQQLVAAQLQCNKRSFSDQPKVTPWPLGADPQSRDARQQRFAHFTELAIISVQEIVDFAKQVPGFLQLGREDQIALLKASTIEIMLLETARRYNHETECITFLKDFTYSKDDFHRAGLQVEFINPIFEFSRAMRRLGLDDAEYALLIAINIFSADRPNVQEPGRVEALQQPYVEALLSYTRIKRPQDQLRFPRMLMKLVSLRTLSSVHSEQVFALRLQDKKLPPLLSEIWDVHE
Protocol: I. Ligand-Binding Test Procedure for Human LXRβ.
• Buffer: 100 mM KCl, 100 mM TRIS (pH 7.4 at +4° C.), 8.6% glycerol, 0.1 mM PMSF*, 2 mM MTG*, 0.2% CHAPS (* not used in wash buffer) • Tracer: ^3H T0901317 • Receptor source: E. coli extracted from cells expressing biotinylated hLXRβ. Extract was made in a similar buffer as above, but with 50 mM TRIS.
• Washed streptavidin and coated flash plates with wash buffer. • Diluted receptor extract to give Bmax˜4000 cpm and add to the wells. • Wrapped the plates in aluminum foil and stored them at +4° C. overnight.
(§1) • Made a dilution series in DMSO of the test ligands. • Made a 5 nM solution of the radioactive tracer in buffer. • Mixed 2500 diluted tracer with 50 of the test ligand from each concentration of the dilution series. • Washed the receptor-coated flash plates. • Added 2000 per well of the ligand/radiolabel mixture to the receptor-coated flash plates. • Wrapped the plates in aluminum foil and incubate at +4° C. over night.
• Aspirated wells, and washed the flashed plates. Sealed the plate. • Measured the remaining radioactivity in the plate.

[2] = target: T2, human LXRα (Homo sapiens, UniProt Q13133); test: Ligand-binding test procedure for human LXRα (3H T0901317 tracer, flash plates); settings: competition with 3H T0901317; read-out: hLXRa binding IC50
T2 construct: biotin (biotinylated); made in house; host or cells: E. coli
T2 sequence (Q13133 1-447): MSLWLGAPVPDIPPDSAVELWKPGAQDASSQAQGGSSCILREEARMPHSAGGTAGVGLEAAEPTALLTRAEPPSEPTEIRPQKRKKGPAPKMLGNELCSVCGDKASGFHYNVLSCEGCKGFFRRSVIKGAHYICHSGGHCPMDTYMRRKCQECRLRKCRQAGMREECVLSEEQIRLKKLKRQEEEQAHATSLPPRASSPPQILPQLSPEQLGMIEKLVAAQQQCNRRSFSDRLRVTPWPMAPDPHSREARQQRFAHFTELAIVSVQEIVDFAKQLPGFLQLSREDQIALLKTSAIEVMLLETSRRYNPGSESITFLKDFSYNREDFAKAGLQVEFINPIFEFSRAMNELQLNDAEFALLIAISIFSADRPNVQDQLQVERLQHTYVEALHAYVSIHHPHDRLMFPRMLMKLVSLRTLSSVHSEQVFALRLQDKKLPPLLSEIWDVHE
Protocol: II. Ligand-Binding Test Procedure for Human LXRa.
• Buffer: 100 mM KCl, 100 mM TRIS (pH 7.4 at +4° C.), 8.6% glycerol, 0.1 mM PMSF*, 2 mM MTG*, 0.2% CHAPS (* not used in wash buffer) • Tracer: ^3H T0901317 • Receptor source: E. coli extract from cells expressing biotinylated hLXRα. Extract was made in a similar buffer as above, but with 50 mM TRIS.
• Washed streptavidin and coated flash plates with wash buffer. • Diluted receptor extract to give Bmax˜4000 cpm and add to the wells. • Wrapped the plates in aluminum foil and stored them at +4° C. over night.
as §1
• Aspirated wells, and wash the flashed plates. Sealed the plate. • Measured the remaining radioactivity in the plate.

Row | SMILES | IC50 [1] | IC50 [2]
1 | NC(=O)CCCS(=O)(=O)c1cccc(Oc2ccc(F)c(-c3ncnc4c(C(F)(F)F)cccc34)c2)c1 [Example 26, 4-[(3-{4-fluoro-3-[8-(trifluoromethyl)quinazolin-4-yl]phenoxy}phenyl)sulfonyl]butanamide] | 184 nM | 2480 nM
2 | CN(CCCS(=O)(=O)c1cccc(Oc2ccc(F)c(-c3ncnc4c(Cl)cccc34)c2)c1)S(C)(=O)=O [Example 49, N-[3-({3-[3-(8-chloroquinazolin-4-yl)-4-fluorophenoxy]phenyl}sulfonyl)propyl]-N-methylmethanesulfonamide] | 1990 nM | –
3 | N#CCS(=O)(=O)c1cccc(Oc2ccc(F)c(-c3ncnc4c(Cl)cccc34)c2)c1 [Example 10, ({3-[3-(8-chloroquinazolin-4-yl)-4-fluorophenoxy]phenyl}sulfonyl)acetonitrile] | 286 nM | 1530 nM
4 | CS(=O)(=O)c1cc(Oc2ccc(F)c(-c3ncnc4c(C(F)(F)F)cccc34)c2)ccc1C(N)=O [Example 39, 4-{4-fluoro-3-[8-(trifluoromethyl)quinazolin-4-yl]phenoxy}-2-(methylsulfonyl)benzamide] | 1210 nM | 4370 nM
5 | Cc1nc(-c2cc(Oc3cccc(S(=O)(=O)CCCNS(C)(=O)=O)c3)ccc2Cl)c2cccc(C(F)(F)F)c2n1 [Example 62, N-{3-[(3-{4-chloro-3-[2-methyl-8-(trifluoromethyl)quinazolin-4-yl]phenoxy}phenyl)sulfonyl]-propyl}methanesulfonamide] | 343 nM | 7040 nM
6 | CS(=O)(=O)c1cc(Oc2ccc(F)c(-c3ncnc4c(Cl)cccc34)c2)ccc1C#N [Example 41, 4-[3-(8-chloroquinazolin-4-yl)-4-fluorophenoxy]-2-(methylsulfonyl)benzonitrile] | 1060 nM | –
7 | CNCCCCS(=O)(=O)c1cccc(Oc2ccc(F)c(-c3ncnc4c(Cl)cccc34)c2)c1 [Example 43, 4-({3-[3-(8-chloroquinazolin-4-yl)-4-fluorophenoxy]phenyl}sulfonyl)-N-methylbutan-1-amine] | 3590 nM | –
8 | CS(=O)(=O)c1cc(Oc2ccc(Cl)c(-c3ncnc4c(Cl)cccc34)c2)ccc1C(N)=O [Example 6, 4-[4-chloro-3-(8-chloroquinazolin-4-yl)phenoxy]-2-(methylsulfonyl)benzamide] | 1260 nM | 3840 nM
9 | CS(=O)(=O)NCCCS(=O)(=O)c1cccc(Oc2ccc(F)c(-c3ncnc4c(C(F)(F)F)cccc34)c2)c1 [Example 29, N-{3-[(3-{4-fluoro-3-[8-(trifluoromethyl)quinazolin-4-yl]phenoxy}phenyl)sulfonyl]propyl}-methanesulfonamide] | 157 nM | 1330 nM
10 | CS(=O)(=O)c1cc(Oc2ccc(Cl)c(-c3ncnc4c(Cl)cccc34)c2)ccc1C#N [Example 1, 4-[4-chloro-3-(8-chloroquinazolin-4-yl)phenoxy]-2-(methylsulfonyl)benzonitrile] | 329 nM | 3130 nM
11 | CNCCCS(=O)(=O)c1cccc(Oc2ccc(F)c(-c3ncnc4c(Cl)cccc34)c2)c1 [Example 44, 3-({3-[3-(8-chloroquinazolin-4-yl)-4-fluorophenoxy]phenyl}sulfonyl)-N-methylpropan-1-amine] | 965 nM | 7310 nM
12 | O=C(O)CCCS(=O)(=O)c1cccc(Oc2ccc(F)c(-c3ncnc4c(Cl)cccc34)c2)c1 [Example 57, 4-({3-[3-(8-chloroquinazolin-4-yl)-4-fluorophenoxy]phenyl}sulfonyl)butanoic acid] | 4210 nM | –
13 | CN(CCCCS(=O)(=O)c1cccc(Oc2ccc(F)c(-c3ncnc4c(Cl)cccc34)c2)c1)S(C)(=O)=O [Example 48, N-[4-({3-[3-(8-chloroquinazolin-4-yl)-4-fluorophenoxy]phenyl}sulfonyl)butyl]-N-methylmethanesulfonamide] | 1020 nM | –
14 | O=C(O)CCCCS(=O)(=O)c1cccc(Oc2ccc(F)c(-c3ncnc4c(Cl)cccc34)c2)c1 [Example 56, 5-({3-[3-(8-chloroquinazolin-4-yl)-4-fluorophenoxy]phenyl}sulfonyl)pentanoic acid] | 3430 nM | –
